Source: PubChem BioAssay AID2060895 (Molecular Pharmacology Branch, DTP, NCI, 2025)

Test system: PDC 899932-113-R3-J6 complex spheroid viability
Assay: Anticancer human tumor 899932-113-R3-J6-PDC patient-derived melanoma cell line growth inhibition [RAS]
Details: for IC50: curve of first compound; for viability, T/C: stronger effect = lower value
Text: RAS pathway inhibitors in Combinations in Complex Spheroids
A high-throughput screen of multi-cell type tumor spheroids was designed to identify active combinations of RAS pathway inhibitors and targeted small molecules. Complex spheroids include a stromal component modeled by human endothelial cells (HUVEC) and fibroblasts modeled by human mesenchymal stem cells (MSCs). The concentration ranges selected for each drug and investigational agent were based upon clinically achievable concentrations if the clinical Cmax of the agent was known.
Compounds. The drugs and investigational agents: abemaciclib (NSC768073), cobimetinib (NSC768068), divarasib (GDC6063, NSC841802), docetaxel (NSC628503), GDC-1971 (RLY-1971, NSC841576), gemcitabine (NSC613327), inavolisib (NSC800729), ipatasertib (NSC767898), KB-0742 (NSC834161), MRTX-1133 (NSC836407), osimertinib (NSC779217), RMC-4630 (NSC839698), RMC-6236 (NSC851965), RMC-6291 (NSC852671), Ro-3306 (NSC812927), sapanisertib (NSC764658), SN-38 (NSC673596), staurosporine (NSC755774), SY5609 (NSC837396), and tovorafenib (DAY101, NSC766906), were obtained from the National Cancer Institute (NCI) Developmental Therapeutics Program Chemical Repository. The FDA-approved anticancer drug set is available from the NCI Developmental Therapeutics Program. […] The stock solutions were prepared in dimethyl sulfoxide (DMSO, Sigma-Aldrich, St. Louis, MO, cat. D2650) at 800-fold the tested concentration and stored at -70 degrees C prior to their use. All drugs and investigational agents were tested over a range starting from a high concentration at or near the clinical Cmax and decreasing in half-log increments. If the clinical Cmax for an agent had not been determined, the highest concentration tested was 10 microM.
Cell Culture. All cells were maintained in an incubator at 37 degrees C and 5% CO2 with 95% humidity. The PDC lines were cultured according to standard operating procedures established by the NCI PDMR. All PDCs were thawed and cultured in Matrigel-coated flasks prepared with a working solution of 1X Ham's F-12 nutrient mix, without supplementation (Invitrogen, Waltham, MA, cat. 11765054), 100 U/mL penicillin-streptomycin (Invitrogen, cat. 15140122), and 2.5% Matrigel (Corning Inc., Corning, NY, cat. 354248) for the first three passages. The 362531-283-R-J2-PDC and 782815-120-R-J1-PDC lines were cultured in 6C/Colon 1B media, which includes advanced DMEM/F-12 (Thermo Fisher Scientific, cat. 12634028), 10 mM HEPES (Thermo Fisher Scientific, cat. 15630080), 1X GlutaMAX supplement (Thermo Fisher Scientific, cat. 35050061), 0.1 mg/mL primocin (InvivoGen, San Diego, CA, cat. ant-pm-2), 10% defined fetal bovine serum, heat inactivated (HyClone Laboratories Inc., Logan, UT, cat. SH30070.03HI), 50% L-WRN conditioned media (ATCC, cat. CRL-3276), 1.25 mM N-Acetyl-L-cysteine (Sigma-Aldrich, cat. A9165), 10 mM nicotinamide (Sigma-Aldrich, cat. N0636), 1X B-27 supplement (Thermo Fisher Scientific, cat. 17504044), 1X N-2 supplement (Thermo Fisher Scientific, cat. 17502048), 50 ng/mL human EGF (Thermo Fisher Scientific, cat. PHG0311), and 10 microM Y-27632 dihydrochloride (Tocris Bioscience, cat. 1254). The K12877-001-R-J1-PDC line was cultured in 6I media, which includes all 6C/Colon 1B media plus 10 ng/mL human FGF-10 (PeproTech, cat. 100-26), 1 ng/mL human FGF-2 (PeproTech, cat. 100-18B), 1 µM prostaglandin E2 (Tocris Bioscience, cat. 2296), […] hydrocortisone (Sigma-Aldrich, cat. H4001), and […] bovine insulin (Sigma-Aldrich, cat. I6634). The K86415-001-R-J1-PDC line was cultured in 6D media, which includes all 6C/Colon 1B media components minus the L-WRN conditioned media. The 485176-168-R4-J1-PDC was cultured in PANC media, which includes all 6C/Colon 1B media plus 100 ng/mL human FGF-10 (PeproTech, cat. 100-26), 500 nM SB-431542 (Selleckchem, cat. S1067), and 10 nM gastrin (Tocris Bioscience, cat. 3006). […]
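Wherever viability, T/C is given: spheroids exposed to agents for seven days before readout; 100% = DMSO vehicle control wells.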

CC(Nc1ccc2c(c1)OCCn1cc(N3C(=O)OCC3C(F)F)nc1-2)C(N)=O (configuration not stated) + C=CC(=O)N1CCN(c2nc(OCC3CCCN3C)nc3c(F)c(-c4nc(N)cc(C)c4C(F)(F)F)c(Cl)cc23)C(C)C1
IC50 (second compound 0.00316 µM): 1.67 µM | IC50 (second compound 0.01 µM): 2.01 µM | IC50 (second compound 0.0316 µM): 2.91 µM | IC50 (second compound 0.1 µM): 2.33 µM | IC50 (second compound 0.316 µM): 1.64 µM | IC50 (second compound 1 µM): 1.51 µM | viability, T/C (second compound 0.00316 µM, first compound 0.0316 µM): 97% | viability, T/C (second compound 0.00316 µM, first compound 0.1 µM): 72.4% | viability, T/C (second compound 0.00316 µM, first compound 0.316 µM): 69.6% | viability, T/C (second compound 0.00316 µM, first compound 1 µM): 55.6% | viability, T/C (second compound 0.00316 µM, first compound 3.16 µM): 43% | viability, T/C (second compound 0.00316 µM, first compound 10 µM): 36.7% | viability, T/C (second compound 0.01 µM, first compound 0.0316 µM): 81.4% | viability, T/C (second compound 0.01 µM, first compound 0.1 µM): 75.8% | viability, T/C (second compound 0.01 µM, first compound 0.316 µM): 65.6% | viability, T/C (second compound 0.01 µM, first compound 1 µM): 55.8% | viability, T/C (second compound 0.01 µM, first compound 3.16 µM): 47.5% | viability, T/C (second compound 0.01 µM, first compound 10 µM): 32.8% | viability, T/C (second compound 0.0316 µM, first compound 0.0316 µM): 90.3% | viability, T/C (second compound 0.0316 µM, first compound 0.1 µM): 75.8% | viability, T/C (second compound 0.0316 µM, first compound 0.316 µM): 70.1% | viability, T/C (second compound 0.0316 µM, first compound 1 µM): 59.9% | viability, T/C (second compound 0.0316 µM, first compound 3.16 µM): 49.7% | viability, T/C (second compound 0.0316 µM, first compound 10 µM): 38.9% | viability, T/C (second compound 0.1 µM, first compound 0.0316 µM): 88.2% | viability, T/C (second compound 0.1 µM, first compound 0.1 µM): 77.2% | viability, T/C (second compound 0.1 µM, first compound 0.316 µM): 69.1% | viability, T/C (second compound 0.1 µM, first compound 1 µM): 55.6% | viability, T/C (second compound 0.1 µM, first compound 3.16 µM): 48.3% | viability, T/C (second compound 0.1 µM, first compound 10 µM): 38.6% | viability, T/C (second compound 0.316 µM, first compound 0.0316 µM): 82.3% | viability, T/C (second compound 0.316 µM, first compound 0.1 µM): 75.9% | viability, T/C (second compound 0.316 µM, first compound 0.316 µM): 68.5% | viability, T/C (second compound 0.316 µM, first compound 1 µM): 51.9% | viability, T/C (second compound 0.316 µM, first compound 3.16 µM): 46.5% | viability, T/C (second compound 0.316 µM, first compound 10 µM): 38.6% | viability, T/C (second compound 1 µM, first compound 0.0316 µM): 95.5% | viability, T/C (second compound 1 µM, first compound 0.1 µM): 81.2% | viability, T/C (second compound 1 µM, first compound 0.316 µM): 61.4% | viability, T/C (second compound 1 µM, first compound 1 µM): 53.2% | viability, T/C (second compound 1 µM, first compound 3.16 µM): 48.7% | viability, T/C (second compound 1 µM, first compound 10 µM): 32%
